# Patent US10793589B2, “Resorcinarene-based amphipathic compound and use thereof” (Industry-University Cooperation Foundation Hanyang …, priority 2016, dated 2020)
# Key:
# [1] = system: leucine transporter (LeuT); experiment: LeuT structural stability, [3H]-Leu binding by scintillation proximity assay (SPA); format: biochemical, Aquifex aeolicus
# Procedure: (§1) FIGS. 7A and 7B are a set of graphs illustrating a result of measuring the structural stability of a leucine transporter (LeuT) solubilized in RGAs or DDM evaluated at CMC+0.04 wt % (a) or CMC+0.2 wt % (b). Protein stability was determined by measuring the ability of the transporter to bind a radiolabeled ligand ([3H]-Leu) via scintillation proximity assay (SPA). The substrate binding ability of LeuT was measured at regular intervals during 10 days of incubation of the protein at room temperature in the presence of individual amphipathic compounds.
# as §1, with “8A” for “7A”, “8B” for “7B”, “RMAs” for “RGAs”
# An experiment was carried out to measure the structural stability of a leucine transporter (LeuT) caused by RGAs and RMAs. The concentrations of individual amphipathic compounds were (a) CMC+0.04 wt % or (b) CMC+0.2 wt %, and the substrate binding characteristic of LeuT was measured by scintillation proximity assay (SPA) using [^3H]-Leu. […]
# Specifically, wild type LeuT derived from Aquifex aeolicus which is a thermophilic bacterium was purified according to the method described in the paper (Nature 1998, 392, 353-358) written by G. Deckert et al. LeuT was expressed in E. coli C41 (DE3) transformed with pET16b encoding a C-terminal 8×His-tagged transporter (an expression plasmid was provided by Dr. E. Gouaux (Vollum Institute, Portland, Oreg., USA)). […] The protein samples were stored at room temperature for 10 days and centrifuged at designated time points, and protein characteristics were determined by measuring the binding capacity of [^3H]-Leucine using SPA. […]
# [2] = Critical micelle concentration by fluorescence dye diphenylhexatriene (DPH); format: physicochemical; details: DPH fluorescence
# Procedure: A method of measuring the CMC is not particularly limited and may be any method generally known in the art. For example, the CMC may be measured according to a fluorescence staining method using diphenylhexatriene (DPH).
# (§2) Specifically, critical micelle concentrations (CMCs) were measured using a fluorescence dye, diphenylhexatriene (DPH), and hydrodynamic radii (Rh) of micelles formed of each compound (1.0 wt %) were measured by a dynamic light scattering (DLS) experiment. Measured results are shown in Table 1 in comparison with values of DDM as an existing amphipathic molecule (detergent).
# [3] = biological target: T1, human β2 adrenergic receptor (β2AR) (Homo sapiens, UniProt P07550); experiment: β2AR stability, [3H]-dihydroalprenolol (DHA) ligand binding assay; format: biochemical; details: for maintaining the ligand binding characteristic of the receptor compared to DDM: 0 hour, CMC+0.2 wt %, [3H]-DHA
# T1 construct: made in house
# T1 sequence (P07550 whole entry): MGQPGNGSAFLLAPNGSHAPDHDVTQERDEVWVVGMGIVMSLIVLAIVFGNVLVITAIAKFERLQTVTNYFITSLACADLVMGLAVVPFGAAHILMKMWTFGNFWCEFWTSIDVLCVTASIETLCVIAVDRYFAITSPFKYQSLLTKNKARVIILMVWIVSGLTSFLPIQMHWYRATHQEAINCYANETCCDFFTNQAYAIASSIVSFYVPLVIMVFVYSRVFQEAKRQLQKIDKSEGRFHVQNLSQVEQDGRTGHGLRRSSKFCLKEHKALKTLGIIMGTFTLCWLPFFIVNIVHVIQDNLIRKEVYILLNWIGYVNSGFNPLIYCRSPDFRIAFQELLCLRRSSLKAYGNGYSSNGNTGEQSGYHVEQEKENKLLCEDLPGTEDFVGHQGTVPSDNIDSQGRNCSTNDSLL
# Procedure: (§3) FIGS. 10A and 10B illustrate a result of measuring the effect of RGAs on the stability of β2AR after (a) 0 hour and (b) over time. Protein-ligand binding characteristics were measured via ligand binding assay using [^3H]-dihydroalprenolol (DHA), and the measurement was carried out by sampling a protein sample at regular intervals during 2 days of storage at room temperature.
# as §3, with “12A” for “10A”, “12B” for “10B”, “RMAs” for “RGAs”
# An experiment was carried out to measure the structural stability of a human (32 adrenergic receptor (β2AR) and a G protein-coupled receptor (GPCR) caused by RGAs and RMAs. That is, a receptor purified with DDM was diluted with a buffer solution containing only each RGA and RMA without cholesteryl hemisuccinate (CHS) or a buffer solution containing CHS and DDM. The final concentration of the compound was CMC+0.2 wt %, and the ligand binding characteristic of the receptor was measured using [^3H]-dihydroalprenolol ([^3H]-DHA) binding.
# Specifically, radioligand binding assay was carried out using the following method. β2AR was purified using 0.1% DDM according to the method described in a paper (Science, 2007, 318, 1266-1273.) written by D. M. Rosenbaum et al. and finally concentrated to about 10 mg/ml (about 200 μM). The β2AR purified with DDM was used to prepare a master binding mixture containing 10 nM [^3H]-dihydroalprenolol (DHA) supplemented with 0.5 mg/ml BSA in a 0.2% amphipathic compound (DDM, RGAs or RMAs). The receptor purified with DDM, RGAs or RMAs was incubated with 10 nM [^3H]-DHA at room temperature for 30 minutes. The mixture was loaded into a G-50 column, the flow-through was collected with 1 ml of a binding buffer (20 mM HEPES pH 7.5, 100 mM NaCl, supplemented with 0.5 mg/ml BSA and 20×CMC individual amphipathic compound, and the G-50 column was further filled with 15 ml of a scintillation fluid. Receptor-bound [^3H]-DHA was measured with a scintillation counter (Beckman). The binding capacity of [^3H]-DHA was measured and shown in a column graph. Each experiment was performed in triplicate.
# [4] = Hydrodynamic radius and size distribution of micelles by dynamic light scattering (DLS); format: physicochemical; details: compound 1.0 wt %
# Procedure: A method of measuring the radius of a micelle is not particularly limited and may be any method generally known in the art. For example, the radius may be measured by a dynamic light scattering (DLS) experiment.
# as §2
# Meanwhile, size distributions of the micelles formed by RGAs and RMAs were measured using DLS.
Structure (SMILES),LeuT stabilization as concentration of compound increased ([1]; CMC+0.04 wt % versus CMC+0.2 wt %),"effect of maintaining the substrate binding characteristic of LeuT ([1]; CMC+0.2 wt %, 10 days at room temperature)",CMC [2],CMC (wt %) [2],maintaining the ligand binding characteristic of the receptor compared to DDM [3],"Rh (nm), hydrodynamic radius of micelles [4]","ability to maintain the ligand binding of the receptor over time compared to DDM ([3]; 2 days at room temperature, early stage (0 to 12 h))"
CCCCCCC[C@H]1c2cc(c(OCCO[C@@H]3OC(CO)[C@@H](O)[C@H](O)C3O)cc2OCCO[C@@H]2OC(CO)[C@@H](O)[C@H](O)C2O)[C@H](CCCCCCC)c2cc(c(OCCO[C@@H]3OC(CO)[C@@H](O)[C@H](O)C3O)cc2OCCO[C@@H]2OC(CO)[C@@H](O)[C@H](O)C2O)[C@@H](CCCCCCC)c2cc(c(OCCO[C@@H]3OC(CO)[C@@H](O)[C@H](O)C3O)cc2OCCO[C@@H]2OC(CO)[C@@H](O)[C@H](O)C2O)[C@@H](CCCCCCC)c2cc1c(OCCO[C@@H]1OC(CO)[C@@H](O)[C@H](O)C1O)cc2OCCO[C@@H]1OC(CO)[C@@H](O)[C@H](O)C1O (some centres unmarked) [RGA-C8],enhanced effect as concentration increased,highest effect of maintaining the substrate binding characteristic of LeuT,~10 µM,~0.025 wt %,inferior to DDM,2.8 ± 0.1 nm,–
CCCCCCCCC[C@H]1c2cc(c(OCCO[C@@H]3OC(CO)[C@@H](O)[C@H](O)C3O)cc2OCCO[C@@H]2OC(CO)[C@@H](O)[C@H](O)C2O)[C@H](CCCCCCCCC)c2cc(c(OCCO[C@@H]3OC(CO)[C@@H](O)[C@H](O)C3O)cc2OCCO[C@@H]2OC(CO)[C@@H](O)[C@H](O)C2O)[C@@H](CCCCCCCCC)c2cc(c(OCCO[C@@H]3OC(CO)[C@@H](O)[C@H](O)C3O)cc2OCCO[C@@H]2OC(CO)[C@@H](O)[C@H](O)C2O)[C@@H](CCCCCCCCC)c2cc1c(OCCO[C@@H]1OC(CO)[C@@H](O)[C@H](O)C1O)cc2OCCO[C@@H]1OC(CO)[C@@H](O)[C@H](O)C1O (some centres unmarked) [RGA-C10],–,–,~5 µM,~0.013 wt %,–,3.5 ± 0.2 nm,–
CCCCCCCCCCC[C@H]1c2cc(c(OCCO[C@@H]3OC(CO)[C@@H](O)[C@H](O)C3O)cc2OCCO[C@@H]2OC(CO)[C@@H](O)[C@H](O)C2O)[C@H](CCCCCCCCCCC)c2cc(c(OCCO[C@@H]3OC(CO)[C@@H](O)[C@H](O)C3O)cc2OCCO[C@@H]2OC(CO)[C@@H](O)[C@H](O)C2O)[C@@H](CCCCCCCCCCC)c2cc(c(OCCO[C@@H]3OC(CO)[C@@H](O)[C@H](O)C3O)cc2OCCO[C@@H]2OC(CO)[C@@H](O)[C@H](O)C2O)[C@@H](CCCCCCCCCCC)c2cc1c(OCCO[C@@H]1OC(CO)[C@@H](O)[C@H](O)C1O)cc2OCCO[C@@H]1OC(CO)[C@@H](O)[C@H](O)C1O (some centres unmarked) [RGA-C12],–,–,~2.5 µM,~0.0069 wt %,superior to DDM,3.0 ± 0.2 nm,inferior ability to maintain the ligand binding of the receptor compared to DDM
